# Measurements reported in patent US9149038B2, “4-amino-6-(heterocyclic)picolinates and 6-amino-2-(heterocyclic)pyrimidine-4-carboxylates and their use as herbicides” (Dow AgroSciences LLC, priority 2013, dated 2015).
# Like-named read-outs stand apart in the source and are kept apart here.
# Test system: Direct Seeded Rice and weed species
# Test: Postemergence herbicidal activity in direct seeded rice, visual rating after 20-22 days and probit GR20/GR50/GR80/GR90 (Table 14)
# Format: in vivo
# Details: for pest or weed control at 17.5 g/ha / pest or weed control at 35 g/ha / pest or weed control at 70 g/ha: post-emergence, 504 h, postemergence; for pest or weed control at 17.5 g/ha: 17.5 g ai/ha; for pest or weed control at 35 g/ha: 35 g ai/ha; for pest or weed control at 70 g/ha: 70 g ai/ha
# From the text: Herbicidal evaluations were made visually on a scale of 0 to 100 where 0 represents no activity and 100 represents complete plant death. Seeds or nutlets of the desired test plant species were planted in a soil matrix prepared by mixing a loam soil (43 percent silt, 19 percent clay, and 38 percent sand, with a pH of about 8.1 and an organic matter content of about 1.5 percent) and river sand in an 80 to 20 ratio. The soil matrix was contained in plastic pots with a surface area of 139.7 cm^2. When required to ensure good germination and healthy plants, a fungicide treatment and/or other chemical or physical treatment was applied. The plants were grown for 10-17 d in a greenhouse with an approximate 14-h photoperiod which was maintained at about 29° C. during the day and 26° C. during the night. Nutrients and water were added on a regular basis and supplemental lighting was provided with overhead metal halide 1000-Watt lamps as necessary. The plants were employed for testing when they reached the second or third true leaf stage. A weighed amount, determined by the highest rate to be tested, of each test compound was placed in 25 mL glass vials and dissolved in a volume of 97:3 v/v acetone-DMSO to obtain 12× stock solutions. […] The concentrated stock solutions were added to the spray solutions so that the final acetone and DMSO concentrations were 16.2% and 0.5%, respectively. Spray solutions were diluted to the appropriate final concentrations with the addition of 10 mL of an aqueous mixture of 1.5% (v/v) Agri-dex crop oil concentrate. The final spray solutions contained 1.25% (v/v) Agri-dex crop oil concentrate. Compound requirements are based upon a 12 mL application volume at a rate of 187 L/ha. Formulated compounds were applied to the plant material with an overhead Mandel track sprayer equipped with […] nozzles calibrated to deliver 187 L/ha over an application area of 0.503 square meters (m^2) at a spray height of 18 inches (43 cm) above average plant canopy height. Control plants were sprayed in the same manner with the solvent blank. The treated plants and control plants were placed in a greenhouse as described above and watered by sub-irrigation to prevent wash-off of the test compounds. After 20-22 days, the condition of the test plants, compared with that of the untreated plants, was determined visually and scored on a scale of 0 to 100 percent where 0 corresponds to no injury and 100 corresponds to complete kill and are presented as indicated in Table 4. By applying the well-accepted probit analysis as described by J. Berkson in Journal of the American Statistical Society, 48, 565 (1953) and by D. Finney in “Probit Analysis” Cambridge University Press (1952), herbicidal injury of a specific compound at various rates can be used to calculate GR20, GR50, GR80 and GR90 values, which are defined as growth reduction factors that correspond to the effective dose of herbicide required to provide plant growth reduction (GR) of 20 percent, 50 percent, 80 percent and 90 percent, respectively. Probit analysis was applied to data collected from multiple dose rates of individual compounds utilizing the procedures explained in the following examples. The data for some of the dose rates and analysis of all of the dose rates are captured in the following tables.
# [1] = BRAPP (broadleaf signalgrass, Brachiaria platyphylla), read-out: Visual Growth Reduction (%) 21 Days After Application BRAPP
# [2] = CYPDI (small-flower flatsedge, Cyperus difformis), read-out: Visual Growth Reduction (%) 21 Days After Application CYPDI
# [3] = CYPES (yellow nutsedge, Cyperus esculentus), read-out: Visual Growth Reduction (%) 21 Days After Application CYPES
# [4] = CYPIR (rice flatsedge, Cyperus iria), read-out: Visual Growth Reduction (%) 21 Days After Application CYPIR
# [5] = DIGSA (large crabgrass, Digitaria sanguinalis), read-out: Visual Growth Reduction (%) 21 Days After Application DIGSA
# [6] = ECHCG (barnyardgrass, Echinochloa crus-galli), read-out: Visual Growth Reduction (%) 21 Days After Application ECHCG
# [7] = ECHCO (junglerice, Echinochloa colonum), read-out: Visual Growth Reduction (%) 21 Days After Application ECHCO
# [8] = LEFCH (Chinese sprangletop, Leptochloa chinensis), read-out: Visual Growth Reduction (%) 21 Days After Application LEFCH
# [9] = ORYSJ (Oryza sativa, rice crop), read-out: Visual Growth Reduction (%) 21 Days After Application ORYSJ
# [10] = ORYSK (Oryza sativa, rice crop), read-out: Visual Growth Reduction (%) 21 Days After Application ORYSK
# [11] = SCPJU (Japanese bulrush, Schoenoplectus juncoides Roxb.), read-out: Visual Growth Reduction (%) 21 Days After Application SCPJU
# [12] = SEBEX (hemp sesbania, Sesbania exaltata), given as number, read-out: Visual Growth Reduction (%) 21 Days After Application SEBEX
smiles,measurement,setting,value
Nc1c(F)c(-c2cc3c(cc2F)OC(F)(F)O3)nc(C(=O)O)c1Cl [Compound 13],GR50 BRAPP,"BRAPP (Brachiaria platyphylla), probit analysis, dose for 50 percent growth reduction",3 g ai/ha
same,GR80 BRAPP,"BRAPP (Brachiaria platyphylla), probit analysis, dose for 80 percent growth reduction",5 g ai/ha
same,GR90 BRAPP,"BRAPP (Brachiaria platyphylla), probit analysis, dose for 90 percent growth reduction",7 g ai/ha
same,GR50 CYPDI,"CYPDI (Cyperus difformis), probit analysis, dose for 50 percent growth reduction",0.04 g ai/ha
same,GR80 CYPDI,"CYPDI (Cyperus difformis), probit analysis, dose for 80 percent growth reduction",1 g ai/ha
same,GR90 CYPDI,"CYPDI (Cyperus difformis), probit analysis, dose for 90 percent growth reduction",2 g ai/ha
same,GR50 CYPES,"CYPES (Cyperus esculentus), probit analysis, dose for 50 percent growth reduction",0.04 g ai/ha
same,GR50 CYPIR,"CYPIR (Cyperus iria), probit analysis, dose for 50 percent growth reduction",0.04 g ai/ha
same,GR50 DIGSA,"DIGSA (Digitaria sanguinalis), probit analysis, dose for 50 percent growth reduction",0.05 g ai/ha
same,GR80 DIGSA,"DIGSA (Digitaria sanguinalis), probit analysis, dose for 80 percent growth reduction",1 g ai/ha
same,GR90 DIGSA,"DIGSA (Digitaria sanguinalis), probit analysis, dose for 90 percent growth reduction",6 g ai/ha
same,GR50 ECHCG,"ECHCG (Echinochloa crus-galli), probit analysis, dose for 50 percent growth reduction",0.01 g ai/ha
same,GR80 ECHCG,"ECHCG (Echinochloa crus-galli), probit analysis, dose for 80 percent growth reduction",1 g ai/ha
same,GR90 ECHCG,"ECHCG (Echinochloa crus-galli), probit analysis, dose for 90 percent growth reduction",10 g ai/ha
same,GR50 ECHCO,"ECHCO (Echinochloa colonum), probit analysis, dose for 50 percent growth reduction",1 g ai/ha
same,GR80 ECHCO,"ECHCO (Echinochloa colonum), probit analysis, dose for 80 percent growth reduction",3 g ai/ha
same,GR90 ECHCO,"ECHCO (Echinochloa colonum), probit analysis, dose for 90 percent growth reduction",6 g ai/ha
same,GR50 LEFCH,"LEFCH (Leptochloa chinensis), probit analysis, dose for 50 percent growth reduction",14 g ai/ha
same,GR80 LEFCH,"LEFCH (Leptochloa chinensis), probit analysis, dose for 80 percent growth reduction",25 g ai/ha
same,GR90 LEFCH,"LEFCH (Leptochloa chinensis), probit analysis, dose for 90 percent growth reduction",33 g ai/ha
same,GR20 ORYSJ,"ORYSJ (Oryza sativa, rice crop), probit analysis, dose for 20 percent growth reduction",6 g ai/ha
same,GR20 ORYSK,"ORYSK (Oryza sativa, rice crop), probit analysis, dose for 20 percent growth reduction",15 g ai/ha
same,GR50 SCPJU,"SCPJU (Schoenoplectus juncoides Roxb.), probit analysis, dose for 50 percent growth reduction",0.0001 g ai/ha
same,GR80 SCPJU,"SCPJU (Schoenoplectus juncoides Roxb.), probit analysis, dose for 80 percent growth reduction",0.0001 g ai/ha
same,GR90 SCPJU,"SCPJU (Schoenoplectus juncoides Roxb.), probit analysis, dose for 90 percent growth reduction",0.0001 g ai/ha
same,GR50 SEBEX,"SEBEX (Sesbania exaltata), probit analysis, dose for 50 percent growth reduction",11 g ai/ha
same,GR80 SEBEX,"SEBEX (Sesbania exaltata), probit analysis, dose for 80 percent growth reduction",16 g ai/ha
same,GR90 SEBEX,"SEBEX (Sesbania exaltata), probit analysis, dose for 90 percent growth reduction",20 g ai/ha
same,pest or weed control at 17.5 g/ha,[1],95 to 100%
same,pest or weed control at 35 g/ha,[1],95 to 100%
same,pest or weed control at 70 g/ha,[1],95 to 100%
same,pest or weed control at 17.5 g/ha,[2],95 to 100%
same,pest or weed control at 35 g/ha,[2],95 to 100%
same,pest or weed control at 70 g/ha,[2],95 to 100%
same,pest or weed control at 17.5 g/ha,[3],95 to 100%
same,pest or weed control at 35 g/ha,[3],95 to 100%
same,pest or weed control at 70 g/ha,[3],95 to 100%
same,pest or weed control at 17.5 g/ha,[4],95 to 100%
same,pest or weed control at 35 g/ha,[4],95 to 100%
same,pest or weed control at 70 g/ha,[4],95 to 100%
same,pest or weed control at 17.5 g/ha,[5],95 to 100%
same,pest or weed control at 35 g/ha,[5],95 to 100%
same,pest or weed control at 70 g/ha,[5],95 to 100%
same,pest or weed control at 17.5 g/ha,[6],95 to 100%
same,pest or weed control at 35 g/ha,[6],85 to 94%
same,pest or weed control at 70 g/ha,[6],95 to 100%
same,pest or weed control at 17.5 g/ha,[7],95 to 100%
same,pest or weed control at 35 g/ha,[7],95 to 100%
same,pest or weed control at 70 g/ha,[7],95 to 100%
same,pest or weed control at 17.5 g/ha,[8],60 to 74%
same,pest or weed control at 35 g/ha,[8],95 to 100%
same,pest or weed control at 70 g/ha,[8],95 to 100%
same,pest or weed control at 17.5 g/ha,[9],45 to 59%
same,pest or weed control at 35 g/ha,[9],85 to 94%
same,pest or weed control at 70 g/ha,[9],95 to 100%
same,pest or weed control at 17.5 g/ha,[10],0 to 29%
same,pest or weed control at 35 g/ha,[10],45 to 59%
same,pest or weed control at 70 g/ha,[10],60 to 74%
same,pest or weed control at 17.5 g/ha,[11],95 to 100%
same,pest or weed control at 35 g/ha,[11],95 to 100%
same,pest or weed control at 70 g/ha,[11],95 to 100%
same,pest or weed control at 17.5 g/ha,[12],95%
same,pest or weed control at 35 g/ha,[12],100%
same,pest or weed control at 70 g/ha,[12],100%
